Laboratory results taken from the supplement of paper PMC10627819.

What was measured:
Test in all cases: fitness (endpoint OD595 vs no drug) (fraction); higher = more growth
[1] = tested on: S. aureus Newman
Procedure, shortened: (§1)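 Fitness compares growth at the stationary-phase transition with the robust mean of no-drug control wells, as a ratio of optical densities. The ratio is capped at 1. Wells of 384-well plates held 30 µl, or 55 µl for S. pneumoniae, inoculated at OD595 0.01. Readings at OD595 every 30 min for 14 h at 37 °C were corrected against the first reading.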

[2] = tested on: B. subtilis 168
Procedure, shortened: as §1

[3] = tested on: S. pneumoniae D39V
Procedure, shortened: as §1
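Further: OD595 on entry to stationary phase over no-drug wells; at most 1.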

CC[C@H]1OC(=O)[C@H](C)[C@@H](O[C@H]2C[C@@](C)(OC)[C@@H](O)[C@H](C)O2)[C@H](C)[C@@H](O[C@@H]2O[C@H](C)C[C@H](N(C)C)[C@H]2O)[C@](C)(O)C[C@@H](C)CN(C)[C@H](C)[C@@H](O)[C@]1(C)O [Azithromycin] + CC1(C)S[C@@H]2[C@H](NC(=O)Cc3ccccc3)C(=O)N2[C@H]1C(=O)O [Penicillin G]
fitness, [1]
Conditions	first compound 0.125 µg/mL	first compound 0.25 µg/mL	first compound 0.5 µg/mL
partner 0.0195 µg/mL	0.844	0.729	0.513
partner 0.039 µg/mL	0.822	0.77	0.452
partner 0.078 µg/mL	0.775	0.741	0.411

CC[C@H]1OC(=O)[C@H](C)[C@@H](O[C@H]2C[C@@](C)(OC)[C@@H](O)[C@H](C)O2)[C@H](C)[C@@H](O[C@@H]2O[C@H](C)C[C@H](N(C)C)[C@H]2O)[C@](C)(O)C[C@@H](C)CN(C)[C@H](C)[C@@H](O)[C@]1(C)O [Azithromycin] + O=C(O)[C@H]1/C(=C/CO)O[C@@H]2CC(=O)N21 [Clavulanic acid]
fitness, [2]
Conditions	partner 1.5 µg/mL	partner 3 µg/mL	partner 6 µg/mL
first compound 0.25 µg/mL	0.939	0.911	0.793
first compound 0.5 µg/mL	0.805	0.788	0.727

fitness, one replicate
Conditions	partner 0.03125 µg/mL	partner 0.0625 µg/mL	partner 0.125 µg/mL	partner 1.5 µg/mL	partner 3 µg/mL	partner 6 µg/mL
[1], first compound 0.125 µg/mL	0.962	0.973	0.92	–	–	–
[1], first compound 0.25 µg/mL	0.902	0.998	0.893	–	–	–
[1], first compound 0.5 µg/mL	0.811	0.799	0.834	–	–	–
[2], first compound 2 µg/mL	–	–	–	0.0793	0.054	0.0121

CC1=C(C(=O)O)N2C(=O)[C@@H](NC(=O)[C@H](N)c3ccccc3)[C@H]2SC1 [Cephalexin] + CC1(C)S[C@@H]2[C@H](NC(=O)Cc3ccccc3)C(=O)N2[C@H]1C(=O)O [Penicillin G]
fitness, [1]
Conditions	first compound 0.25 µg/mL	first compound 0.5 µg/mL	first compound 1 µg/mL
partner 0.0195 µg/mL	0.891	0.785	0.811
partner 0.039 µg/mL	0.927	0.937	0.908
partner 0.078 µg/mL	0.875	0.897	0.944

CC1=C(C(=O)O)N2C(=O)[C@@H](NC(=O)[C@H](N)c3ccccc3)[C@H]2SC1 [Cephalexin] + CO[C@@]12[C@H](COC(N)=O)C3=C(C(=O)C(C)=C(N)C3=O)N1C[C@@H]1N[C@@H]12 [Mitomycin C]
fitness, [3], one replicate
Conditions	first compound 0.125 µg/mL	first compound 0.25 µg/mL	first compound 0.5 µg/mL
partner 0.002 µg/mL	0.806	0.757	0.732
partner 0.004 µg/mL	0.761	0.723	0.686
partner 0.008 µg/mL	0.607	0.615	0.608

fitness
Conditions	first compound 0.25 µg/mL	first compound 0.5 µg/mL	first compound 1 µg/mL	first compound 2 µg/mL	first compound 4 µg/mL
[1], partner 0.0156 µg/mL	0.804	0.761	0.891	–	–
[1], partner 0.0312 µg/mL	0.732	0.724	0.705	–	–
[1], partner 0.0625 µg/mL	0.614	0.577	0.655	–	–
[3], partner 0.001075 µg/mL	–	–	0.662	0.188	0.0487
[3], partner 0.00215 µg/mL	–	–	0.639	0.146	0.0215
[3], partner 0.0043 µg/mL	–	–	0.604	0.173	0.05

O=C(O)[C@H]1/C(=C/CO)O[C@@H]2CC(=O)N21 [Clavulanic acid] + CC1(C)S[C@@H]2[C@H](NC(=O)Cc3ccccc3)C(=O)N2[C@H]1C(=O)O [Penicillin G]
fitness, [1], one replicate
Conditions	first compound 0.03125 µg/mL	first compound 0.0625 µg/mL	first compound 0.125 µg/mL
partner 0.0195 µg/mL	0.934	0.859	0.796
partner 0.039 µg/mL	0.851	0.819	0.712
partner 0.078 µg/mL	0.846	0.694	0.613

O=C(O)[C@H]1/C(=C/CO)O[C@@H]2CC(=O)N21 [Clavulanic acid] + CC1=C(C(=O)O)N2C(=O)[C@@H](NC(=O)[C@H](N)c3ccccc3)[C@H]2SC1 [Cephalexin]
Conditions	fitness
[2], first compound 1.5 µg/mL, partner 0.125 µg/mL	0.904
[2], first compound 1.5 µg/mL, partner 0.25 µg/mL	0.927
[2], first compound 1.5 µg/mL, partner 0.5 µg/mL	0.889
[2], first compound 3 µg/mL, partner 0.125 µg/mL	0.878
[2], first compound 3 µg/mL, partner 0.25 µg/mL	0.818
[2], first compound 3 µg/mL, partner 0.5 µg/mL	0.793
[2], first compound 6 µg/mL, partner 0.125 µg/mL	0.772
[2], first compound 6 µg/mL, partner 0.25 µg/mL	0.76
[2], first compound 6 µg/mL, partner 0.5 µg/mL	0.723
[3], first compound 0.5 µg/mL, partner 2 µg/mL	0.0193
[3], first compound 0.5 µg/mL, partner 4 µg/mL	0.0187
[3], first compound 1 µg/mL, partner 2 µg/mL	0.171
[3], first compound 1 µg/mL, partner 4 µg/mL	0.203
[3], first compound 2 µg/mL, partner 1 µg/mL	0.104
[3], first compound 2 µg/mL, partner 2 µg/mL	0.0309
[3], first compound 2 µg/mL, partner 4 µg/mL	0.045

one replicate
Conditions	fitness
[1], first compound 0.03125 µg/mL, partner 0.5 µg/mL	≥ 1
[1], first compound 0.03125 µg/mL, partner 1 µg/mL	≥ 1
[1], first compound 0.03125 µg/mL, partner 2 µg/mL	≥ 1
[1], first compound 0.0625 µg/mL, partner 0.5 µg/mL	0.958
[1], first compound 0.0625 µg/mL, partner 1 µg/mL	0.986
[1], first compound 0.0625 µg/mL, partner 2 µg/mL	≥ 1
[1], first compound 0.125 µg/mL, partner 0.5 µg/mL	0.897
[1], first compound 0.125 µg/mL, partner 1 µg/mL	0.913
[1], first compound 0.125 µg/mL, partner 2 µg/mL	0.919
[2], first compound 1.5 µg/mL, partner 1 µg/mL	0.929
[2], first compound 3 µg/mL, partner 1 µg/mL	0.848
[2], first compound 6 µg/mL, partner 1 µg/mL	0.867
[3], first compound 0.5 µg/mL, partner 0.125 µg/mL	0.945
[3], first compound 0.5 µg/mL, partner 0.25 µg/mL	0.957
[3], first compound 0.5 µg/mL, partner 0.5 µg/mL	0.941
[3], first compound 1 µg/mL, partner 0.125 µg/mL	0.881
[3], first compound 1 µg/mL, partner 0.25 µg/mL	0.903
[3], first compound 1 µg/mL, partner 0.5 µg/mL	0.944
[3], first compound 2 µg/mL, partner 0.125 µg/mL	0.772
[3], first compound 2 µg/mL, partner 0.25 µg/mL	0.789
[3], first compound 2 µg/mL, partner 0.5 µg/mL	0.765

O=C(O)[C@H]1/C(=C/CO)O[C@@H]2CC(=O)N21 [Clavulanic acid] + CC1=C\[C@@H](O)CC(=O)Cc2nc(co2)C(=O)N2CCC=C2C(=O)O[C@H](C(C)C)[C@H](C)/C=C/C(=O)NC\C=C\1 [Virginiamycin M1]
fitness
Conditions	first compound 0.5 µg/mL	first compound 1 µg/mL	first compound 1.5 µg/mL	first compound 2 µg/mL	first compound 3 µg/mL	first compound 6 µg/mL
[2], partner 0.0625 µg/mL	–	–	0.935	–	0.877	0.809
[2], partner 0.125 µg/mL	–	–	0.917	–	0.895	0.7
[2], partner 0.25 µg/mL	–	–	0.927	–	0.841	0.822
[3], partner 0.5 µg/mL	0.991	0.935	–	0.918	–	–
[3], partner 1 µg/mL	≥ 1	0.958	–	0.867	–	–
[3], partner 2 µg/mL	0.957	0.904	–	0.796	–	–

fitness, one replicate
Conditions	first compound 0.03125 µg/mL	first compound 0.0625 µg/mL	first compound 0.125 µg/mL	first compound 0.5 µg/mL	first compound 1 µg/mL	first compound 2 µg/mL
[1], partner 0.0625 µg/mL	0.925	0.984	0.908	–	–	–
[1], partner 0.125 µg/mL	0.917	0.977	0.949	–	–	–
[1], partner 0.25 µg/mL	0.971	≥ 1	0.975	–	–	–
[3], partner 0.15 µg/mL	–	–	–	≥ 1	0.929	0.868
[3], partner 0.3 µg/mL	–	–	–	0.875	0.87	0.802

O=C(O)[C@H]1/C(=C/CO)O[C@@H]2CC(=O)N21 [Clavulanic acid] + CC(C1CCC(C(O1)OC2C(CC(C(C2O)OC3C(C(C(CO3)(C)O)NC)O)N)N)N)NC [Gentamicin]
main component drawn
Conditions	fitness
[2], first compound 1.5 µg/mL, partner 0.0625 µg/mL	0.884
[2], first compound 3 µg/mL, partner 0.0625 µg/mL	0.859
[2], first compound 6 µg/mL, partner 0.0625 µg/mL	0.737
[2], first compound 6 µg/mL, partner 0.25 µg/mL	0.118
[3], first compound 0.5 µg/mL, partner 2 µg/mL	0.96
[3], first compound 0.5 µg/mL, partner 4 µg/mL	0.955
[3], first compound 0.5 µg/mL, partner 8 µg/mL	0.932
[3], first compound 1 µg/mL, partner 2 µg/mL	0.902
[3], first compound 1 µg/mL, partner 4 µg/mL	0.896
[3], first compound 1 µg/mL, partner 8 µg/mL	0.885
[3], first compound 2 µg/mL, partner 2 µg/mL	0.795
[3], first compound 2 µg/mL, partner 4 µg/mL	0.8
[3], first compound 2 µg/mL, partner 8 µg/mL	0.787

fitness, [1], one replicate, main component drawn
Conditions	first compound 0.03125 µg/mL	first compound 0.0625 µg/mL	first compound 0.125 µg/mL
partner 1 µg/mL	0.92	0.947	0.872
partner 2 µg/mL	≥ 1	0.893	0.835
partner 4 µg/mL	0.768	0.566	0.388

O=C(O)[C@H]1/C(=C/CO)O[C@@H]2CC(=O)N21 [Clavulanic acid] + CCCCCCCCCC(=O)N[C@@H]1[C@H]([C@@H]([C@H](O[C@H]1OC2=C3C=C4C=C2OC5=C(C=C(C=C5)[C@H]([C@H]6C(=O)N[C@@H](C7=C(C(=CC(=C7)O)OC8[C@H]([C@H]([C@@H]([C@H](O8)CO)O)O)O)C9=C(C=CC(=C9)[C@H](C(=O)N6)NC(=O)[C@@H]4NC(=O)[C@@H]1C2=CC(=CC(=C2)OC2=C(C=CC(=C2)[C@H](C(=O)N[C@H](CC2=CC(=C(O3)C=C2)Cl)C(=O)N1)N)O)O)O)C(=O)O)O[C@H]1[C@@H]([C@H]([C@@H]([C@H](O1)CO)O)O)NC(=O)C)Cl)CO)O)O [Teicoplanin]
fitness, [1], one replicate, main component drawn
Conditions	first compound 0.03125 µg/mL	first compound 0.0625 µg/mL	first compound 0.125 µg/mL
partner 0.1562 µg/mL	0.992	0.966	0.916
partner 0.3125 µg/mL	0.924	≥ 1	0.894
partner 0.625 µg/mL	≥ 1	≥ 1	0.967
